The results in this text go back to PubChem BioAssay (NCI).

Among the test systems are HOP-62 NSCLC; HOP-92 NSCLC; IGROV1 ovarian; NCI-H460 lung; OVCAR-8 ovarian; SK-OV-3 ovarian; SW-620 colon; TK-10 renal; UO-31 renal; EKVX NSCLC.
What all share (experiment): NCI-60 cell line screen, 48 h

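Assay format: 96-well plates, 48-hour exposure. Abbreviation: GI50, concentration required for 50% inhibition of growth. The concentration for full growth arrest is given as TGI.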

Take `C/C(=C\CCc1ccsc1)CC/C=C(\C)CCCN1CCN(CCO)CC1`: the GI50 in the assay with HOP-62 NSCLC was 2.6 µM; with HOP-92 NSCLC, 1.73 µM; with IGROV1 ovarian it was 4.68 µM; in the assay with NCI-H460 lung, 1.96 µM; with OVCAR-8 ovarian, 4.84 µM; in the assay with SK-OV-3 ovarian it was 7.58 µM. Besides, the GI50 in the assay with SW-620 colon is 1.93 µM; in the assay with TK-10 renal, 2.5 µM; in the assay on UO-31 renal, 4.95 µM. Further, the TGI in the assay with HOP-62 NSCLC amounted to 6.4 µM; with HOP-92 NSCLC, 7.48 µM; in the assay on IGROV1 ovarian, 18.9 µM; in the assay with NCI-H460 lung it was 3.79 µM; with OVCAR-8 ovarian it was 18.4 µM; in the assay on SK-OV-3 ovarian, 21 µM. The TGI amounted to 4.29 µM in the assay on SW-620 colon, 7.34 µM with TK-10 renal and 20.5 µM in the assay on UO-31 renal.
In the case of `CC(N)CN.CC(N)CN.[Cl-].[O]=[Os+2]=[O]` (stereo not given), the GI50 with EKVX NSCLC was more than 100 µM; in the assay on IGROV1 ovarian, more than 100 µM; in the assay on NCI-H460 lung, more than 100 µM; with OVCAR-8 ovarian, 96.2 µM; in the assay on SW-620 colon, 69 µM; in the assay on TK-10 renal, more than 100 µM. Besides, the GI50 with UO-31 renal is 93.3 µM. Further, the TGI with EKVX NSCLC, with IGROV1 ovarian, with NCI-H460 lung, in the assay on OVCAR-8 ovarian, in the assay on SW-620 colon and with TK-10 renal was more than 100 µM in each case. The compound further yielded a TGI in the assay on UO-31 renal of more than 100 µM.
In the case of `Cc1ccc(-n2nnc3c(sc4ccccc43)c2=O)cc1`, the GI50 is 3.8 µM in the assay on HOP-62 NSCLC; 1.54 µM in the assay with HOP-92 NSCLC; 4.16 µM in the assay on IGROV1 ovarian; 4.19 µM with NCI-H460 lung; 6.1 µM with OVCAR-8 ovarian; 3.54 µM in the assay with SK-OV-3 ovarian. Moreover, the figures for the GI50 in the assay on SW-620 colon, with TK-10 renal and with UO-31 renal were 26.2 µM, 7.47 µM and 2.24 µM, respectively. Besides, the TGI in the assay with HOP-62 NSCLC was 26.5 µM; in the assay on HOP-92 NSCLC, 6.82 µM; in the assay on IGROV1 ovarian, more than 100 µM; in the assay on NCI-H460 lung it was more than 100 µM; with OVCAR-8 ovarian, more than 100 µM; in the assay on SK-OV-3 ovarian, 19.4 µM. In addition, the TGI in the assay on SW-620 colon was more than 100 µM; with TK-10 renal, 50 µM; with UO-31 renal, 7.75 µM.
As for `Cc1ccc(-c2c3c(N)nc(-c4ccncc4)nc3nc3c2c(C)nn3-c2ccccc2)cc1`, the GI50 in the assay on HOP-62 NSCLC was 0.647 µM; in the assay with HOP-92 NSCLC, 5.61 µM; with IGROV1 ovarian it was 22.5 µM; with NCI-H460 lung, 6.5 µM; in the assay with OVCAR-8 ovarian, 3.63 µM; in the assay on SK-OV-3 ovarian, 3.41 µM. Besides, the GI50 in the assay with SW-620 colon was 9.99 µM; in the assay with TK-10 renal, 9.5 µM; in the assay with UO-31 renal, more than 37.5 µM. Besides, the TGI is 1.95 µM in the assay on HOP-62 NSCLC; 22 µM with HOP-92 NSCLC; more than 37.5 µM in the assay with IGROV1 ovarian; 33.6 µM with NCI-H460 lung; more than 37.5 µM in the assay with OVCAR-8 ovarian; 10.2 µM in the assay on SK-OV-3 ovarian. Besides, the TGI was more than 37.5 µM in the assay with SW-620 colon, 25.6 µM in the assay with TK-10 renal and more than 37.5 µM in the assay on UO-31 renal.
Consider `O=[N+]([O-])c1ccc(Oc2cccc(C(F)(F)F)c2)c([N+](=O)[O-])c1`, for which the GI50 in the assay with EKVX NSCLC was 7.11 µM; with HOP-62 NSCLC, 4.01 µM; with HOP-92 NSCLC, 1.25 µM; in the assay with IGROV1 ovarian, 3.02 µM; with NCI-H460 lung, 3.1 µM; with OVCAR-8 ovarian it was 2.48 µM. For the same compound, the GI50 is 0.451 µM in the assay with SW-620 colon, 3.54 µM with TK-10 renal and 3.15 µM in the assay on UO-31 renal. Moreover, the TGI in the assay on EKVX NSCLC worked out at 22.5 µM; in the assay with HOP-62 NSCLC, 16.1 µM; in the assay on HOP-92 NSCLC it was 5.39 µM; in the assay with IGROV1 ovarian, 14.2 µM; in the assay on NCI-H460 lung, 10.2 µM; with OVCAR-8 ovarian, 8.16 µM. In addition, the TGI came out at 10.1 µM in the assay on SW-620 colon, 9.33 µM in the assay on TK-10 renal and 13.8 µM in the assay with UO-31 renal.
Consider `O=S1c2ccccc2N=C(c2ccc3ccccc3c2)CC1c1ccccc1F` (stereo not given), for which the TGI with EKVX NSCLC, in the assay on HOP-62 NSCLC, with IGROV1 ovarian, with NCI-H460 lung, with OVCAR-8 ovarian and in the assay with SK-OV-3 ovarian was more than 100 µM throughout. The TGI in the assay on SW-620 colon, with TK-10 renal and in the assay with UO-31 renal was more than 100 µM throughout.
Consider `C[C@@H](Oc1cc(-c2cnn(C3CC4(CNC4)C3)c2)cnc1N)c1c(Cl)ccc(F)c1Cl`, for which the GI50 is 2.3 µM in the assay on HOP-62 NSCLC; 0.848 µM in the assay on HOP-92 NSCLC; 6.64 µM in the assay with IGROV1 ovarian; 1.98 µM with NCI-H460 lung; 10.4 µM in the assay on OVCAR-8 ovarian; 7.98 µM in the assay on SK-OV-3 ovarian. For the same compound, the GI50 was 1.31 µM with SW-620 colon, 10.3 µM with TK-10 renal and 4.96 µM with UO-31 renal. The TGI in the assay on HOP-62 NSCLC stood at 13.4 µM; in the assay with HOP-92 NSCLC, 5.12 µM; with IGROV1 ovarian, 21.5 µM; with NCI-H460 lung, 13.7 µM; in the assay on OVCAR-8 ovarian, 24.3 µM; with SK-OV-3 ovarian, 21.1 µM. Besides, the TGI with SW-620 colon came to 11.9 µM; in the assay with TK-10 renal, 22.5 µM; in the assay with UO-31 renal, 18.3 µM.
On to `CC(C)(C)C1CCP(=O)(c2ccccc2)CC1` (stereo not given), for which the TGI with EKVX NSCLC, in the assay on HOP-62 NSCLC, with IGROV1 ovarian, in the assay with NCI-H460 lung, in the assay with OVCAR-8 ovarian and in the assay on SK-OV-3 ovarian was more than 100 µM throughout. The TGI with SW-620 colon, with TK-10 renal and in the assay on UO-31 renal was more than 100 µM throughout.
As to `Cc1ccc(C2NC(=S)N3C(c4ccc(C)cc4)NC(=S)N23)cc1` (stereo not given), the GI50 was 7.93 µM in the assay on EKVX NSCLC; 5.89 µM in the assay on HOP-62 NSCLC; 8.5 µM with IGROV1 ovarian; 3.82 µM with NCI-H460 lung; 7.36 µM in the assay with OVCAR-8 ovarian; 4.77 µM in the assay with SK-OV-3 ovarian. The GI50 in the assay with SW-620 colon is 3.78 µM; in the assay on TK-10 renal, 12.3 µM; in the assay on UO-31 renal it was 12 µM. Moreover, the TGI in the assay with EKVX NSCLC is 25.3 µM; in the assay on HOP-62 NSCLC, 20.1 µM; in the assay on IGROV1 ovarian it was 22 µM; in the assay on NCI-H460 lung it was 13.1 µM; with OVCAR-8 ovarian it was 25.1 µM; with SK-OV-3 ovarian, 15.5 µM. The TGI in the assay with SW-620 colon amounted to 17.9 µM; in the assay with TK-10 renal, 26.9 µM; in the assay with UO-31 renal, 28.2 µM.
In the case of `O=c1[nH]cc(CO)c(=O)[nH]1`, the GI50 in the assay with HOP-62 NSCLC, with HOP-92 NSCLC, in the assay on IGROV1 ovarian, in the assay on NCI-H460 lung, in the assay with OVCAR-8 ovarian and in the assay on SK-OV-3 ovarian was more than 100 µM each time. Moreover, the GI50 with SW-620 colon, in the assay with TK-10 renal and with UO-31 renal was more than 100 µM throughout. Besides, the TGI in the assay on HOP-62 NSCLC, in the assay on HOP-92 NSCLC, in the assay on IGROV1 ovarian, in the assay on NCI-H460 lung, with OVCAR-8 ovarian and in the assay with SK-OV-3 ovarian was more than 100 µM in each case. For the same compound, the TGI in the assay on SW-620 colon, in the assay with TK-10 renal and in the assay on UO-31 renal was more than 100 µM in each case.
Consider `O=C(N/N=C/c1ccncc1)c1ccc(C(F)(F)F)nc1Nc1cccc(C(F)(F)F)c1`, for which the GI50 with EKVX NSCLC is 1.39 µM; in the assay with HOP-62 NSCLC, 2 µM; in the assay with IGROV1 ovarian, 1.41 µM; with NCI-H460 lung, 2.84 µM; in the assay on OVCAR-8 ovarian, 2.39 µM; in the assay with SK-OV-3 ovarian, 2.13 µM. The results for the GI50 in the assay on SW-620 colon, with TK-10 renal and in the assay on UO-31 renal were 2.66 µM, 2.52 µM and 2.49 µM, respectively. Moreover, the TGI in the assay on EKVX NSCLC was found to be 8.87 µM; in the assay on HOP-62 NSCLC, 7.29 µM; in the assay with IGROV1 ovarian it was 4.26 µM; in the assay on NCI-H460 lung, 10.4 µM; with OVCAR-8 ovarian, 10.4 µM; with SK-OV-3 ovarian, 6.67 µM. The TGI in the assay with SW-620 colon worked out at 12.8 µM; in the assay with TK-10 renal, 11.6 µM; in the assay on UO-31 renal, 10.2 µM.
On to `Nc1nc2c(c(=O)[nH]1)N=C(COP(=O)(O)OP(=O)(O)O)CN2`, for which the TGI in the assay with EKVX NSCLC, in the assay on HOP-62 NSCLC, in the assay with IGROV1 ovarian, in the assay on OVCAR-8 ovarian, in the assay on SK-OV-3 ovarian and in the assay on SW-620 colon was more than 100 µM each time. Moreover, the TGI in the assay on TK-10 renal and with UO-31 renal was more than 100 µM in each case.
Turning to `Cc1ccn2c(-c3csc(Nc4cccc(O)c4)n3)c(C)nc2c1`, the GI50 with HOP-62 NSCLC is 0.638 µM; with HOP-92 NSCLC, 1.75 µM; with IGROV1 ovarian, 4.43 µM; in the assay on NCI-H460 lung it was 0.423 µM; in the assay on OVCAR-8 ovarian, 0.611 µM; with SK-OV-3 ovarian, 1.04 µM. The GI50 is 0.337 µM in the assay on SW-620 colon, 4.88 µM with TK-10 renal and 0.977 µM in the assay with UO-31 renal. Besides, the TGI in the assay on HOP-62 NSCLC turned out to be 19.1 µM; in the assay with HOP-92 NSCLC, 22.7 µM; in the assay with IGROV1 ovarian it was 29.1 µM; in the assay on NCI-H460 lung, 16.9 µM; in the assay on OVCAR-8 ovarian, 44.9 µM; with SK-OV-3 ovarian, 11.8 µM. Also, the TGI in the assay with SW-620 colon stood at 26.8 µM; with TK-10 renal it was 24.9 µM; in the assay on UO-31 renal it was 16.6 µM.
For the compound `COc1cc(-c2ccccc2)c(OC)cc1CCl`, the TGI in the assay with EKVX NSCLC, in the assay on HOP-62 NSCLC, with IGROV1 ovarian, in the assay on NCI-H460 lung, with OVCAR-8 ovarian and in the assay on SK-OV-3 ovarian was more than 100 µM in each case. The TGI with SW-620 colon, in the assay with TK-10 renal and in the assay on UO-31 renal was more than 100 µM throughout.
As for `O=NNc1ccc(Sc2ccc3ccccc3c2)cn1`, the TGI is more than 100 µM with EKVX NSCLC; 50.2 µM with HOP-62 NSCLC; more than 100 µM in the assay on IGROV1 ovarian; more than 100 µM with NCI-H460 lung; more than 100 µM with OVCAR-8 ovarian; more than 100 µM with SK-OV-3 ovarian. Further, the TGI with SW-620 colon, in the assay on TK-10 renal and in the assay with UO-31 renal was more than 100 µM in each case.
